We go through 14 compounds from PubChem BioAssay (NCI).

Test systems include BT-549 breast; DMS 114 small cell lung; DMS 273 small cell lung; HL-60(TB) leukemia; MDA-MB-231 breast; PC-3 prostate; SF-295 CNS; SK-MEL-28 melanoma; SK-MEL-5 melanoma; SW-620 colon.
Common to all, as to experiment: NCI anticancer screen, dose series, 48 h

SMILES strings stand for the structures.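 Interpolation was linear, between the two tested concentrations surrounding the appropriate level; five concentrations were tested over 48 hours in 96-well plates. The concentration for 50% growth inhibition is given as GI50. The concentration for full growth arrest is given as TGI.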

For the compound `CC12OOC(c3ccccc31)c1c2ccc2ccccc12` (stereo not given), the TGI is 22.3 µM in the assay with BT-549 breast; 2.34 µM with DMS 114 small cell lung; 21 µM with DMS 273 small cell lung; 2.72 µM in the assay with HL-60(TB) leukemia; 26.6 µM in the assay on MDA-MB-231 breast; 18.8 µM in the assay with PC-3 prostate. Also, the TGI with SF-295 CNS was found to be 14.3 µM; in the assay on SK-MEL-28 melanoma, 27 µM; in the assay with SK-MEL-5 melanoma it was 21.6 µM; with SW-620 colon, 3.94 µM.

For `COC(=O)C(=O)C(C(=O)C(=O)Nc1cccc(C(C)=O)c1)c1nc2ccc([N+](=O)[O-])cc2[nH]c1=O` (stereo not given), the TGI with DMS 114 small cell lung, with DMS 273 small cell lung, in the assay with HL-60(TB) leukemia, in the assay with SF-295 CNS, in the assay with SK-MEL-28 melanoma and in the assay on SK-MEL-5 melanoma was > 100 µM throughout. Further, the TGI with SW-620 colon is > 100 µM.

Turning to `O=C1CC(c2c(-c3ccccc3)[nH]c3ccccc23)C(=O)N1` (stereo not given), the TGI in the assay with DMS 114 small cell lung, in the assay on DMS 273 small cell lung, in the assay with HL-60(TB) leukemia, with SF-295 CNS, in the assay on SK-MEL-28 melanoma and with SK-MEL-5 melanoma was > 100 µM each time. Besides, in the assay with SW-620 colon, the TGI was > 100 µM.

As to `c1ccc([CH2][Sn]([CH2]c2ccccc2)([O]c2cccc3cccnc23)[O]c2cccc3cccnc23)cc1`, the GI50 was 0.0823 µM in the assay with DMS 114 small cell lung; 0.233 µM in the assay on DMS 273 small cell lung; 0.314 µM in the assay on HL-60(TB) leukemia; 0.579 µM in the assay on SF-295 CNS; 0.193 µM in the assay on SK-MEL-28 melanoma; 0.213 µM in the assay on SK-MEL-5 melanoma. For the same compound, the GI50 in the assay on SW-620 colon was 0.188 µM. The TGI in the assay on DMS 114 small cell lung is 0.298 µM; in the assay with DMS 273 small cell lung it was 0.502 µM; with HL-60(TB) leukemia, > 100 µM; with SF-295 CNS, 1.92 µM; in the assay with SK-MEL-28 melanoma, 0.963 µM; in the assay on SK-MEL-5 melanoma, 0.415 µM. This compound yielded a TGI in the assay on SW-620 colon of 0.376 µM.

`COC(=O)C1=Cc2cc(OC)c(OC)c(OC)c2[C@H](c2cc(OC)c(OC)c(OC)c2)C1C(=O)OC` (stereo not given in full): the TGI with DMS 114 small cell lung, with DMS 273 small cell lung, in the assay with HL-60(TB) leukemia, in the assay on SF-295 CNS, in the assay with SK-MEL-28 melanoma and in the assay with SK-MEL-5 melanoma was > 100 µM in each case. Further, the TGI in the assay with SW-620 colon is > 100 µM.

For `COc1ccc2c(c1)[n+]([O-])c(-c1ccc([N+](=O)[O-])cc1)c(N)[n+]2[O-]`, the TGI in the assay with DMS 114 small cell lung, in the assay with DMS 273 small cell lung, in the assay on HL-60(TB) leukemia, with SF-295 CNS, in the assay with SK-MEL-28 melanoma and with SK-MEL-5 melanoma was > 100 µM in each case. Moreover, the TGI in the assay with SW-620 colon was > 100 µM.

Consider `CN1C(=O)CCC2[C@@H]3CC=C4C[C@@H](O)CC[C@]4(C)C3CC[C@@]21C` (stereo not given in full), for which the TGI in the assay on DMS 114 small cell lung was > 100 µM; in the assay with DMS 273 small cell lung, > 100 µM; with HL-60(TB) leukemia it was 56 µM; with SF-295 CNS it was > 100 µM; in the assay with SK-MEL-28 melanoma it was > 100 µM; in the assay with SK-MEL-5 melanoma, 50.3 µM. The TGI in the assay with SW-620 colon was > 100 µM.

On to `CN(C)c1ccc(/C=C/C(=O)[O-])cc1.CN(C)c1ccc(/C=C/C(=O)[O-])cc1.[Cu+2]`, for which the TGI is > 100 µM in the assay on DMS 114 small cell lung; > 100 µM in the assay with DMS 273 small cell lung; > 100 µM in the assay with HL-60(TB) leukemia; > 100 µM with SF-295 CNS; > 100 µM in the assay with SK-MEL-28 melanoma; 93.5 µM in the assay with SK-MEL-5 melanoma. Further, the TGI with SW-620 colon was > 100 µM. In addition, the GI50 in the assay with DMS 273 small cell lung is 54 µM; in the assay with SK-MEL-28 melanoma, > 69.8 µM.

With `COC1OC(CO)C(O)C(OC(C)=O)C1NC(=O)N(CCCl)N=O` (stereo not given), the TGI in the assay with DMS 114 small cell lung, in the assay on DMS 273 small cell lung, with HL-60(TB) leukemia, in the assay with SF-295 CNS, in the assay on SK-MEL-28 melanoma and in the assay with SK-MEL-5 melanoma was > 100 µM each time. Moreover, the TGI in the assay with SW-620 colon is > 100 µM.

As for `O=[N+]([O-])c1ccc(C2CC(c3ccccc3Cl)=Nc3ccccc3S2)cc1` (stereo not given), the TGI was 8.29 µM in the assay with DMS 114 small cell lung; 33.8 µM in the assay on DMS 273 small cell lung; 6.36 µM in the assay with HL-60(TB) leukemia; 38.5 µM with SF-295 CNS; 22.7 µM with SK-MEL-28 melanoma; 12.8 µM with SK-MEL-5 melanoma. In the assay with SW-620 colon, the TGI turned out to be 4.78 µM.

In the case of `Cc1cc([N+](=O)[O-])ccc1Sc1c2ccccc2nc2cc(Cl)ccc12`, the TGI in the assay with DMS 114 small cell lung is 52.9 µM; in the assay with DMS 273 small cell lung, > 100 µM; in the assay on HL-60(TB) leukemia, 51 µM; in the assay with SF-295 CNS, > 100 µM; in the assay on SK-MEL-28 melanoma it was > 100 µM; in the assay with SK-MEL-5 melanoma, > 100 µM. In the assay with SW-620 colon, this compound showed a TGI of 93.5 µM.

Regarding `COc1ccc(OC(C)=O)c2c1CCC=CC2=O`, the TGI worked out at 36.8 µM in the assay on DMS 114 small cell lung; 33.8 µM in the assay with DMS 273 small cell lung; 6.7 µM with HL-60(TB) leukemia; 35.4 µM in the assay on SF-295 CNS; 28.6 µM in the assay on SK-MEL-28 melanoma; 28.9 µM with SK-MEL-5 melanoma. In addition, the TGI in the assay with SW-620 colon amounted to 28.8 µM.

On to `Nc1c(-c2cn(Cc3ccccc3)c3ccccc23)[n+]([O-])c2ccccc2[n+]1[O-]`, for which the TGI with DMS 114 small cell lung was > 100 µM; with DMS 273 small cell lung, 81.8 µM; in the assay with HL-60(TB) leukemia it was 42.6 µM; in the assay with SF-295 CNS, 88.7 µM; in the assay with SK-MEL-28 melanoma it was 91.8 µM; in the assay with SK-MEL-5 melanoma, 51.3 µM. For the same compound, the TGI in the assay with SW-620 colon is > 100 µM.

Regarding `C#CCNC(=O)N(CC#C)N=O`, the TGI in the assay on DMS 114 small cell lung was > 100 µM; in the assay on DMS 273 small cell lung it was > 100 µM; in the assay on HL-60(TB) leukemia it was 63.4 µM; with SF-295 CNS, > 100 µM; in the assay on SK-MEL-28 melanoma it was > 100 µM; with SK-MEL-5 melanoma, > 100 µM. For the same compound, the TGI in the assay with SW-620 colon is > 100 µM.
